Here are results for two molecules from patent US10597398B2, “Suppression and regeneration promoting effect of low molecular weight compound on cancer and fibrosis” (NATIONAL UNIVERSITY CORPORATION TOTTORI UNIVERSITY, priority 2015, dated 2020).

The structures appear in SMILES notation.

The subject of one data set is mesenchymal stem cell. Put plainly: Hepatocyte differentiation-inducing effect, summary statements on Example 4 (readout not specified). The class given is cell-based, human. Conditions: low concentration. The source says: Albumin, a hepatocyte marker, was used as an indicator, and RNA was collected from cells treated with each compound. Next, a hepatocyte differentiation-inducing effect was examined by real-time RT-PCR. The concentrations of the respective compounds were as described in FIG. 35. Each control sample used was 0.1% DMSO, a solvent for each compound.
By using urea synthesis, a hepatocyte function, as an indicator, a hepatocyte differentiation-inducing effect of each compound was investigated.
The cells treated with each compound were subjected to immunofluorescence analysis of albumin, a hepatocyte marker, to investigate a hepatocyte differentiation-inducing effect. The concentrations of the respective compounds were as described in FIG. 37. Each control sample used was 0.1% DMSO, a solvent for each compound.
By using glycogen synthesis, a hepatocyte function, as an indicator, a hepatocyte differentiation-inducing effect of each compound was investigated.

Data set [1] concerns Wnt/β-catenin signaling. The data set can be described thus: Inhibitory effect on Wnt/β-catenin signaling in liver cancer cells (HuH7-TCF4 luciferase). The following applies: concentration equal to or lower than that of IC-2. The class given is cell-based, human. In short, it runs like this: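 HuH-7 cells stably carrying a 3×TCF4-motif firefly luciferase reporter, treated 48 h at 37 °C with compounds at concentrations reducing HuH-7 growth to about 50% or less (n=3). Firefly luciferase luminescence read from lysates; 0.1% DMSO solvent control, 0.5 μM 5-FU control; Student's t-test.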

In data set [2] the test system is Wnt/β-catenin signaling. Put plainly: Inhibitory effect on Wnt/β-catenin signaling in mesenchymal stem cells (E7-TCF4 luciferase). Conditions: concentration equal to or lower than that of IC-2. It is filed as cell-based, human. As to the method:
A pTCF4-CMVpro-GL4.20 plasmid vector, having 3 copies of TCF4 motifs (CCT TTG ATC) upstream of aCMV promoter in a multiple cloning site of pGL4.20 (Promega Corp., Fitchburg, Wis.), was linearized and stably transfected into UE7T-13 cells to prepare E7-TCF4 cells. Also, a pCMVpro-GL4.20 plasmid vector, having a CMV promoter in a multiple cloning site of pGL4.20, was linearized and stably transfected into UE7T-13 cells. The resulting stable cells (E7-CMV cells) were cultured, like UE7T-13 cells, in 10% FBS/DMEM containing 0.25 μg/mL puromycin.
UE7T-13 cells were used to measure Wnt/β-catenin signaling activity. The concentrations of the respective compounds were as described in FIG. 42. Each control sample used was 0.1% DMSO, a solvent for each compound.
First, 70 to 90% confluent E7-TCF4 cells and E7-CMV cells were harvested and seeded (n=3) at 1.6758×10^4 cells/well of a 24-well plate (9.0×10^3 cells/cm^2). One day after that, each compound was added to the cells and the mixture was cultured at 37° C. Day 4 after the compound addition, the culture medium was changed.
At day 1, 4, or 8 after the compound treatment, the culture medium was discarded, and 100 μL of room temperature 5×Passive Lysis Buffer (PLB), which had been diluted 5-fold with MilliQ water, was added to each well. Next, the plate was shaken at room temperature for 15 min and was then frozen at −30° C. overnight. A Luciferase Assay Substrate was diluted with 10 mL of room temperature Luciferase Assay Buffer II to prepare Luciferase Assay Reagent II (LARII). The frozen PLB lysate samples were thawed and permeabilized for 15 min. Then, 10 μL aliquots were added to wells of a 96-well white plate. While 50 μL aliquots of LARII were each added to each well, luminescence was quantified by using a 1420 multi-label counter ARVO MX to determine firefly luciferase activity.

Data set [3] relates to CD44-positive HuH-7 cells. Put plainly: Liver cancer model mouse, tumor volume. The class given is in vivo, mice. The following applies: 50 mg/kg IC-2 vs 30 mg/kg 5-FU, intraperitoneally every three days. How it is done:
CD44-positive HuH-7 cells were subcutaneously transplanted in mice. Next, the engrafted mice were divided into 3 groups (DMSO group: 5 mice; 5-FU group: 4 mice; and IC-2 group: 4 mice). Then, DMSO was added to prepare 30 mg/kg of 5-FU and 50 mg/kg of IC-2 such that each liquid volume was 100 μL; and 100% DMSO, a solvent for each drug, was used as a control sample. Subsequently, each drug was dosed intraperitoneally every three days. The body weight of each mouse and the long and short diameters of a tumor were measured every three days. The tumor volume was calculated by using the following equation: Tumor volume=Long diameter×(Short diameter)^2×0.5. The volume at Day 0 was used to normalize each tumor volume, and then a graph was created. To fully evaluate a 5-FU effect, the 5-FU dose was set to an amount 2 times the regular amount 15 mg/kg used in research articles. The concentration of IC-2 corresponding to a concentration at which Wnt/β-catenin signaling was inhibited in vitro was calculated. Then, the concentration was doubled to set an IC-2 dose.

In a further data set the test system is Wnt/β-catenin signal. Conditions: as described in Patent Literature 1; cited from earlier work.

Turning to `COc1ccc(COc2ccc(CNC(=O)N3CCC(=O)N4C(Cc5ccccc5)C(=O)N(Cc5cccc6ccccc56)CC34)cc2)cc1` (centres unmarked) [IC-2-OPMB], the “hepatocyte-inducing effect at low concentration” value in the data set with mesenchymal stem cell is “exerted a hepatocyte-inducing effect”. Moreover, the “inhibitory effect on Wnt/β-catenin signaling pathway in liver cancer cells compared with IC-2” value in the data set with Wnt/β-catenin signaling [1] was “more potent inhibitory effect”. Also, the “inhibitory effect on Wnt/β-catenin signaling pathway in mesenchymal stem cells compared with IC-2” value in the data set with Wnt/β-catenin signaling [2] is on record as “more potent inhibitory effect”.
`O=C1C(Cc2ccccc2)N2C(=O)CCN(C(=O)NCc3ccccc3)C2CN1Cc1cccc2ccccc12` (centres unmarked) [IC-2]: the “anti-malignant tumor therapeutic effect (tumor volume)” value in data set [3] is “more remarkable anti-malignant tumor therapeutic effect than 5-FU”. For the same molecule, in the data set on Wnt/β-catenin signal, the “Wnt/β-catenin signal in a mesenchymal stem cell and differentiation into hepatocytes” value is on record as “inhibit a Wnt/β-catenin signal in a mesenchymal stem cell, thereby inducing differentiation of the mesenchymal stem cell into hepatocytes”.
